In patent publication US10570121B2, “Substituted dihydroisoquinolinone compounds” (priority 2014, dated 2020) one finds IC50 and Ki data, which are given here for 37 compounds.

One assay deals with EZH2 Mutant Y641N (Homo sapiens (Human), UniProt Q15910, Y641N). The experiment in a line: EZH2 Mutant Y641N nucleosome assay. The assay is classed as biochemical. The settings on record: PRC2 4-protein complex 6 nM, 1.5 μM SAM, HeLa oligonucleosomes; for pIC50: read-out: EZH2 Mutant Y641N Nucleosome assay IC50; for IC50: EZH2 Mutant Y641N Nucleosome assay IC50 (μM).
Sequence of EZH2 Mutant Y641N (Q15910 whole entry Y641N, looked up): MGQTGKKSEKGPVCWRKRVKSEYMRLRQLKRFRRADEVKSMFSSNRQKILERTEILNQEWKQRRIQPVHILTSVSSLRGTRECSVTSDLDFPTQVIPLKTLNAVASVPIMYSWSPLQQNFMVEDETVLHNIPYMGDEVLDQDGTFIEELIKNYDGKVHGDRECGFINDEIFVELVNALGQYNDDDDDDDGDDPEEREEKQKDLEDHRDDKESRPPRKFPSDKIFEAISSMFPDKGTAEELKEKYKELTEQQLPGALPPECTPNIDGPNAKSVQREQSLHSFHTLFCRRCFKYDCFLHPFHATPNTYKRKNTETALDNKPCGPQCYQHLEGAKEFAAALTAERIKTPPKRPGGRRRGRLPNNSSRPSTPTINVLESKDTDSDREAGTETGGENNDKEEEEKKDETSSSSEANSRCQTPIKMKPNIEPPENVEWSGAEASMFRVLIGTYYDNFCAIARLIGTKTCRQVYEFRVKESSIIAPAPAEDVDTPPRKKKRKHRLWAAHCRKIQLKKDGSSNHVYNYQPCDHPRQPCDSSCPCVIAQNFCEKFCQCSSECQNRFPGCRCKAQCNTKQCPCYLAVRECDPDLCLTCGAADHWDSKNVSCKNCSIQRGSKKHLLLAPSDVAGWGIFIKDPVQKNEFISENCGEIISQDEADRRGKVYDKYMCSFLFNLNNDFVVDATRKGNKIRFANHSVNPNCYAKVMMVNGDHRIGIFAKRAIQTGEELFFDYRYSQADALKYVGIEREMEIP
Sequence of EZH2 Mutant Y641N (O75530 whole entry partner, looked up): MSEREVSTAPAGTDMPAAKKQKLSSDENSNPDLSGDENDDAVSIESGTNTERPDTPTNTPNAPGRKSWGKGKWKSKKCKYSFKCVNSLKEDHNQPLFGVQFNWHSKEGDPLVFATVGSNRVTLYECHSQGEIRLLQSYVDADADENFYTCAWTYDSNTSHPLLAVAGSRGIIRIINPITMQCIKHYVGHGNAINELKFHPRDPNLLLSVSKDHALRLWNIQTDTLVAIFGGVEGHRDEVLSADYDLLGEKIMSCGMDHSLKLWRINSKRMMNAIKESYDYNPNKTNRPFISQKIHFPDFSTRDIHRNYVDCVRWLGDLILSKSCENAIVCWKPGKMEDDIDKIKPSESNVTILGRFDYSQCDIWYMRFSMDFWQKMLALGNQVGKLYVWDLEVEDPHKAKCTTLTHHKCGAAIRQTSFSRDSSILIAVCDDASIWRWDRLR
Sequence of EZH2 Mutant Y641N (Q15022 whole entry partner, looked up): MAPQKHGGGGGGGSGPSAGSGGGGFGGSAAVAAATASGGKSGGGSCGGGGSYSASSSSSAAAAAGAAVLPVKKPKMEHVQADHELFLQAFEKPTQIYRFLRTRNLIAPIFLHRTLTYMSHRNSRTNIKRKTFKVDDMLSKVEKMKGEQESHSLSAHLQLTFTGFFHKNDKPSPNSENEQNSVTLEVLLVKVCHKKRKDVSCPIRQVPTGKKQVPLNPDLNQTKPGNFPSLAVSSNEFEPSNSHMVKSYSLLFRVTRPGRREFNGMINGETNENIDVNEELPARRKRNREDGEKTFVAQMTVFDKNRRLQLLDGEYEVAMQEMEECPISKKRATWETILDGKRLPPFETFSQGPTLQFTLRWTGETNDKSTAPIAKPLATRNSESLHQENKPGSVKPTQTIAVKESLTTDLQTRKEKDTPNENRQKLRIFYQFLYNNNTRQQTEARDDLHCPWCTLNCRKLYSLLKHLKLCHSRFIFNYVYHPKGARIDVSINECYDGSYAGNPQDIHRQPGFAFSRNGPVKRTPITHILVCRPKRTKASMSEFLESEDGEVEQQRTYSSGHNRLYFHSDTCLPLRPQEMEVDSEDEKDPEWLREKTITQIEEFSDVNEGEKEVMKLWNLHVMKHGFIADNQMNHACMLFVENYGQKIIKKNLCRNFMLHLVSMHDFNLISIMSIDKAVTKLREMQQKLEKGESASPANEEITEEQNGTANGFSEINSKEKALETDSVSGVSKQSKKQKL
Sequence of EZH2 Mutant Y641N (Q09028 whole entry partner, looked up): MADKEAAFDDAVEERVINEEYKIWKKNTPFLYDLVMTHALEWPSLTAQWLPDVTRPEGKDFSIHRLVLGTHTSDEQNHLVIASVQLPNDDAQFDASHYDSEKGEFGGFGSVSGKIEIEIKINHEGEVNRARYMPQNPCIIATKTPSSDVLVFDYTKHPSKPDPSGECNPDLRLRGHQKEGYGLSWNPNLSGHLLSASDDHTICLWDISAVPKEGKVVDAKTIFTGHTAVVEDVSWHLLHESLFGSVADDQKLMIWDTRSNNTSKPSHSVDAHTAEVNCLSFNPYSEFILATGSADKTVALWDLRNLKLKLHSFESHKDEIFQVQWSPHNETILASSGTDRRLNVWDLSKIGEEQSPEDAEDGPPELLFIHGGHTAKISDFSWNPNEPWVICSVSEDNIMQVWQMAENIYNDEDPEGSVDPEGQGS
In another assay the target is WT EZH2 (Homo sapiens (Human), UniProt Q15910). The assay is described as follows: WT EZH2 nucleosome assay (10X SAM, high SAM conditions). It counts as biochemical. The settings on record: 15 uM SAM, Ki app from competitive inhibition fit; for pKi: read-out: WT EZH2 Nucleosome assay (10X SAM) Ki; for Ki: WT EZH2 Nucleosome assay (10X SAM) Ki (μM).
Sequence of WT EZH2 (Q15910 whole entry, looked up): as the sequence (Q15910 whole entry Y641N, looked up) above, with N641Y counted along it
Sequence of WT EZH2 (O75530 whole entry partner, looked up): as the sequence (O75530 whole entry partner, looked up) above
Sequence of WT EZH2 (Q15022 whole entry partner, looked up): as the sequence (Q15022 whole entry partner, looked up) above
Sequence of WT EZH2 (Q09028 whole entry partner, looked up): as the sequence (Q09028 whole entry partner, looked up) above

Structures are written as SMILES. pIC50, pKi: −log10 of the molar value. Where two headings read alike, the source gives them in different places.

The pIC50 is the negative decadic logarithm of the IC50, by convention in mol/L. Broadly, the pKi is −log10 of the Ki, conventionally taken in molar units. `Cc1cc(C)c(CN2CCc3c(Cl)cc(C(F)C4CCN(C(=O)CO)CC4)c(Cl)c3C2=O)c(=O)[nH]1` (single isomer, unassigned; (-)) [Example 9, (−)-5,8-dichloro-2-[(4,6-dimethyl-2-oxo-1,2-dihydropyridin-3-yl)methyl]-7-{fluoro[1-(hydroxyacetyl)piperidin-4-yl]methyl}-3,4-dihydroisoquinolin-1(2H)-one]: at EZH2 Mutant Y641N, the pIC50 was 7.46. Also, the pKi at WT EZH2 was 8.30.
Regarding `Cc1cc(C)c(CN2CCc3c(Cl)cc(C(CO)N4CCOCC4)c(Cl)c3C2=O)c(=O)[nH]1` (single isomer, unassigned) [Example 69], on EZH2 Mutant Y641N, the pIC50 was 5.37. The pKi at WT EZH2 is 6.38.
With `COC(c1cc(Cl)c2c(c1Cl)C(=O)N(Cc1c(C)cc(C)[nH]c1=O)CC2)[C@@H](C)CO` (single isomer, unassigned) [Example 142], the pIC50 at EZH2 Mutant Y641N is 6.96. Further, the pKi at WT EZH2 is 8.10.
Consider `COC(c1cc(Br)c2c(c1Cl)C(=O)N(Cc1c(C)cc(C)[nH]c1=O)CC2)C1CN(C(=O)CO)C1` (single isomer, unassigned) [Example 138], for which the pIC50 on EZH2 Mutant Y641N is 6.60. In addition, the pKi on WT EZH2 was 7.34.
In the case of `COc1cc(C)[nH]c(=O)c1CN1CCc2c(Cl)cc([C@@H](OC)C3COC3)c(Cl)c2C1=O` [Example 82, 5,8-dichloro-2-[(4-methoxy-6-methyl-2-oxo-1,2-dihydropyridin-3-yl)methyl]-7-[(S)-methoxy(oxetan-3-yl)methyl]-3,4-dihydroisoquinolin-1(2H)-one], the pIC50 on EZH2 Mutant Y641N was 6.88. On WT EZH2, the pKi is 8.22.
As to `Cc1cc(C)c(CN2CCc3c(C)cc(C(C)C4CN(S(C)(=O)=O)C4)c(Cl)c3C2=O)c(=O)[nH]1` (single isomer, unassigned) [Example 193], the pIC50 at EZH2 Mutant Y641N is 8.00. Besides, the pKi on WT EZH2 is 9.00.
Consider `Cc1cc(OC(F)F)c(CN2CCc3c(Cl)cc(C(CO)C4CCOC4)c(Cl)c3C2=O)c(=O)[nH]1` (single isomer, unassigned) [Example 92], for which the pIC50 at EZH2 Mutant Y641N is 8.05. Besides, the pKi on WT EZH2 was 9.00.
On to `COC(c1cc(Cl)c2c(c1Cl)C(=O)N(Cc1c(C)cc(C)[nH]c1=O)CC2)C1CN(C(=O)[C@H](C)O)C1` (single isomer, unassigned) [Example 172], for which the pIC50 at EZH2 Mutant Y641N is 7.92. For the same compound, the pKi on WT EZH2 is 9.10.
`Cc1cc(C)c(CN2CCc3c(Cl)cc(C(C)C4CNC4)c(Cl)c3C2=O)c(=O)[nH]1` (single isomer, unassigned) [Example 189]: the pIC50 on EZH2 Mutant Y641N was 8.22. Moreover, the pKi on WT EZH2 was 9.15.
In the same order, the values of `Cc1cc(C)c(CN2CCc3c(Cl)cc([C@@H](CO)[C@H]4CCCO4)c(Cl)c3C2=O)c(=O)[nH]1` [Example 45] are 6.46 and 6.99.
In the same order, the values of `COC(c1cc(Cl)c2c(c1Cl)C(=O)N(Cc1c(C)cc(C)[nH]c1=O)CC2)C1CCNCC1` (single isomer, unassigned) [Example 167] are 6.07 and 7.21.
On to `Cc1cc(C)c(CN2CCc3c(Cl)cc(C(C)N4CCOCC4)c(Cl)c3C2=O)c(=O)[nH]1` (racemic) [Example 89, (±)-5,8-dichloro-2-[(4,6-dimethyl-2-oxo-1,2-dihydropyridin-3-yl)methyl]-7-[1-(morpholin-4-yl)ethyl]-3,4-dihydroisoquinolin-1(2H)-one], for which the pIC50 on EZH2 Mutant Y641N is 7.06. Further, the pKi on WT EZH2 was 8.10.
The IC50 is the concentration needed to halve the response being measured. The low end stands for greater potency, the high end for weaker potency. Compound `COC(c1cc(Cl)c2c(c1Cl)C(=O)N(Cc1c(C)cc(C)[nH]c1=O)CC2)C1CCOC1` (single isomer, unassigned) [Example 162] came in with an IC50 against EZH2 Mutant Y641N of 2.97 µM. Moreover, the Ki at WT EZH2 was 148 nM.
As to `Cc1cc(OC(F)F)c(CN2CCc3c(Cl)cc(C(CO)C4CCOC4)c(Cl)c3C2=O)c(=O)[nH]1` (single isomer, unassigned) [Example 93], the pIC50 at EZH2 Mutant Y641N is 5.88. Also, on WT EZH2, the pKi was 6.80.
In the same order, the values of `COc1cc(C)[nH]c(=O)c1CN1CCc2c(C)cc(C(C)C3CN(S(C)(=O)=O)C3)c(Cl)c2C1=O` (single isomer, unassigned) [Example 192] are 6.22 and 6.93.
Turning to `COc1cc(C)[nH]c(=O)c1CN1CCc2c(C)cc(C(C)C3COC3)c(Cl)c2C1=O` (single isomer, unassigned) [Example 198], the pIC50 on EZH2 Mutant Y641N was 9.00. For the same compound, on WT EZH2, the negative logarithm of the Ki (pKi) was 11.00.
In the same order, the values of `COc1cc(C)[nH]c(=O)c1CN1CCc2c(C)cc(C(C)C3COC3)c(Cl)c2C1=O` (single isomer, unassigned) [Example 197] are 7.21 and 7.48.
In the same order, the values of `CC(=C1CCNCC1)c1cc(Cl)c2c(c1Cl)C(=O)N(Cc1c(C)cc(C)[nH]c1=O)CC2` [Example 80] are 8.15 and 9.00.
As to `COc1cc(C)[nH]c(=O)c1CN1CCc2c(Cl)cc(C(OC)C3CCOC3)c(Cl)c2C1=O` (single isomer, unassigned) [Example 124], the IC50 against EZH2 Mutant Y641N is 0.892 µM. In addition, the Ki at WT EZH2 was found to be 58 nM.
As for `Cc1cc(OC(F)F)c(CN2CCc3c(Cl)cc(C(CO)C4CCOC4)c(Cl)c3C2=O)c(=O)[nH]1` (single isomer, unassigned) [Example 94], at EZH2 Mutant Y641N, the pIC50 was 5.31. For the same compound, the pKi at WT EZH2 is 6.49.
`COc1cc(C)[nH]c(=O)c1CN1CCc2c(Cl)cc(C(C)C3CCN(C(=O)CO)CC3)c(Cl)c2C1=O` (single isomer, unassigned) [Example 200]: on EZH2 Mutant Y641N, the negative-log IC50 (pIC50) is 8.70. The pKi at WT EZH2 was 10.00.
In the same order, the values of `Cc1cc(C)c(CN2CCc3c(Cl)cc(C(CO)N4CCOCC4)c(Cl)c3C2=O)c(=O)[nH]1` (racemic) [Example 60] are 6.74 and 7.51.
Turning to `Cc1cc(C)c(CN2CCc3ccc([C@@H](CO)[C@@H]4CCOC4)c(Cl)c3C2=O)c(=O)[nH]1` (racemic) [Example 64], the negative-log IC50 (pIC50) on EZH2 Mutant Y641N is 7.37. Besides, on WT EZH2, the pKi was 8.15.
In the same order, the values of `COc1cc(C)[nH]c(=O)c1CN1CCc2c(C)cc(C(OC)C3CCS(=O)(=O)CC3)c(Cl)c2C1=O` (single isomer, unassigned) [Example 130] are 5.70 and 6.66.
Regarding `COC(c1cc(Cl)c2c(c1Cl)C(=O)N(Cc1c(C)cc(C)[nH]c1=O)CC2)C1CCOC1` (single isomer, unassigned) [Example 160], the IC50 at EZH2 Mutant Y641N amounted to 0.086 µM. This compound also showed a Ki on WT EZH2 of 21 nM.
As to `Cc1cc(C)c(CN2CCc3c(Cl)cc(C(CO)N4CC[C@H](F)C4)c(Cl)c3C2=O)c(=O)[nH]1` (single isomer, unassigned) [Example 63], the pIC50 at EZH2 Mutant Y641N is 5.39. In addition, the pKi on WT EZH2 was 6.28.
For `Cc1cc(C)c(CN2CCc3c(Cl)cc(C(CO)O[C@@H]4CCOC4)c(Cl)c3C2=O)c(=O)[nH]1` (single isomer, unassigned) [Example 103], the pIC50 at EZH2 Mutant Y641N was 6.49. Also, the pKi at WT EZH2 is 7.28.
In the same order, the values of `COC(c1cc(Cl)c2c(c1Cl)C(=O)N(Cc1c(C)cc(C)[nH]c1=O)CC2)C1(F)CCN(C)CC1` (single isomer, unassigned) [Example 120] are 7.85 and 8.70.
In the same order, the values of `COC(c1cc(Cl)c2c(c1Cl)C(=O)N(Cc1c(C)cc(C)[nH]c1=O)CC2)C1CN(C(=O)[C@@H](C)O)C1` (single isomer, unassigned) [Example 171] are 5.58 and 6.48.
Compound `CCC(OC)c1cc(Cl)c2c(c1Cl)C(=O)N(Cc1c(C)cc(C)[nH]c1=O)CC2` (single isomer, unassigned) [Example 16, 5,8-dichloro-2-[(4,6-dimethyl-2-oxo-1,2-dihydropyridin-3-yl)methyl]-7-(1-methoxypropyl)-3,4-dihydroisoquinolin-1(2H)-one] displayed an IC50 against EZH2 Mutant Y641N of 0.04 µM. The Ki at WT EZH2 stood at 4 nM.
Take `COC(c1cc(Cl)c2c(c1Cl)C(=O)N(Cc1c(C)cc(C)[nH]c1=O)CC2)C1(F)CCN(C)CC1` (single isomer, unassigned) [Example 121]: the pIC50 on EZH2 Mutant Y641N was 6.59. Also, the negative-log Ki (pKi) on WT EZH2 was 7.54.
Turning to `COc1cc(C)[nH]c(=O)c1CN1CCc2c(Cl)cc([C@H](CO)[C@@H]3CCCO3)c(Cl)c2C1=O` [Example 106], at EZH2 Mutant Y641N, the pIC50 was 8.10. Also, the negative logarithm of the Ki (pKi) on WT EZH2 was 9.22.
With `COC(c1cc(Cl)c2c(c1Cl)C(=O)N(Cc1c(C)cc(C)[nH]c1=O)CC2)C1CCS(=O)(=O)C1` (single isomer, unassigned) [Example 149], the pIC50 at EZH2 Mutant Y641N is 5.64. Further, the pKi on WT EZH2 is 6.27.
In the same order, the values of `COc1cc(C)[nH]c(=O)c1CN1CCc2c(Cl)cc(C(C)C3CN(C)C3)c(Cl)c2C1=O` (single isomer, unassigned) [Example 87, 5,8-dichloro-2-[(4-methoxy-6-methyl-2-oxo-1,2-dihydropyridin-3-yl)methyl]-7-[1-(1-methylazetidin-3-yl)ethyl]-3,4-dihydroisoquinolin-1 (2H)-one] are 8.70 and 11.00.
In the same order, the values of `COc1cc(C)[nH]c(=O)c1CN1CCc2c(C)cc([C@H](OC)[C@@H]3CCOC3)c(Cl)c2C1=O` [Example 83, 8-chloro-2-[(4-methoxy-6-methyl-2-oxo-1,2-dihydropyridin-3-yl)methyl]-7-{(R)-methoxy[(3R)-tetrahydrofuran-3-yl]methyl}-5-methyl-3,4-dihydroisoquinolin-1(2H)-one] are 8.40 and 9.40.
In the same order, the values of `COC(c1cc(Cl)c2c(c1Cl)C(=O)N(Cc1c(C)cc(C)[nH]c1=O)CC2)C1(O)CCOCC1` (single isomer, unassigned) [Example 52] are 5.98 and 6.53.
As for `Cc1cc(C)c(CN2CCc3ccc(C(CO)C4CCOC4)c(Cl)c3C2=O)c(=O)[nH]1` (single isomer, unassigned) [Example 98], on EZH2 Mutant Y641N, the pIC50 is 5.06. Also, the pKi on WT EZH2 was 5.91.
